What was measured:
SH-SY5Y = test: Antiproliferative activity against human SH-SY5Y cells after 48 hrs by MTS reduction assay; format: functional, cell-based
HEK293 = test: Antiproliferative activity against human HEK293 cells after 48 hrs by MTS reduction assay; format: cell-based; details: HEK293, 48 h
cells [1] = details: Homo sapiens, RPMI8266, 72 h
Description: Antiproliferative activity against human RPMI8266 cells after 72 hrs by ViaLight assay

EKVX = test: cells; details: Homo sapiens, 72 h
Description: Antiproliferative activity against human EKVX cells after 72 hrs by ViaLight assay

HOP-62 = test: cells; details: Homo sapiens, HOP-62, 72 h
Description: Antiproliferative activity against human HOP62 cells after 72 hrs by ViaLight assay

NCI-H23 = test: cells; details: Homo sapiens, NCI-H23, 72 h
Description: Antiproliferative activity against human NCI-H23 cells after 72 hrs by ViaLight assay

NCI-H460 = test: cells; details: Homo sapiens, NCI-H460, 72 h
Description: Antiproliferative activity against human NCI-H460 cells after 72 hrs by ViaLight assay

NCI-H522 = test: cells; details: Homo sapiens, NCI-H522, 72 h
Description: Antiproliferative activity against human NCI-H522 cells after 72 hrs by ViaLight assay

HCC 2998 = test: cells; details: Homo sapiens, HCC 2998, 72 h
Description: Antiproliferative activity against human HCC2998 cells after 72 hrs by ViaLight assay

HCT-116 = test: cells; details: Homo sapiens, HCT-116, 72 h
Description: Antiproliferative activity against human HCT116 cells after 72 hrs by ViaLight assay

HCT-15 = test: cells; details: Homo sapiens, HCT-15, 72 h
Description: Antiproliferative activity against human HCT15 cells after 72 hrs by ViaLight assay

SF-268 = test: cells; details: Homo sapiens, SF-268, 72 h
Description: Antiproliferative activity against human SF268 cells after 72 hrs by ViaLight assay

SF-295 = test: cells; details: Homo sapiens, SF-295, 72 h
Description: Antiproliferative activity against human SF295 cells after 72 hrs by ViaLight assay

SF-539 = test: cells; details: Homo sapiens, SF-539, 72 h
Description: Antiproliferative activity against human SF539 cells after 72 hrs by ViaLight assay

SNB-19 = test: cells; details: Homo sapiens, SNB-19, 72 h
Description: Antiproliferative activity against human SNB19 cells after 72 hrs by ViaLight assay

SNB-75 = test: cells; details: Homo sapiens, SNB-75, 72 h
Description: Antiproliferative activity against human SNB75 cells after 72 hrs by ViaLight assay

U-251 = test: cells; details: Homo sapiens, U-251, 72 h
Description: Antiproliferative activity against human U251 cells after 72 hrs by ViaLight assay

LOX IMVI = test: cells; details: Homo sapiens, 72 h
Description: Antiproliferative activity against human LOXIMVI cells after 72 hrs by ViaLight assay

M14 = test: cells; details: Homo sapiens, M14, 72 h
Description: Antiproliferative activity against human M14 cells after 72 hrs by ViaLight assay

SK-MEL-5 = test: cells; details: Homo sapiens, SK-MEL-5, 72 h
Description: Antiproliferative activity against human SK-MEL-5 cells after 72 hrs by ViaLight assay

IGROV-1 = test: cells; details: Homo sapiens, IGROV-1, 72 h
Description: Antiproliferative activity against human IGROV1 cells after 72 hrs by ViaLight assay

OVCAR-3 = test: cells; details: Homo sapiens, OVCAR-3, 72 h
Description: Antiproliferative activity against human OVCAR-3 cells after 72 hrs by ViaLight assay

SK-OV-3 = test: cells; details: Homo sapiens, SK-OV-3, 72 h, read-out: pGI50 (converted)
Description: Antiproliferative activity against human SKOV3 cells after 72 hrs by ViaLight assay

786-0 = test: cells; details: Homo sapiens, 786-0, 72 h
Description: Antiproliferative activity against human 786-0 cells after 72 hrs by ViaLight assay

ACHN = test: cells; details: Homo sapiens, 72 h
Description: Antiproliferative activity against human ACHN cells after 72 hrs by ViaLight assay

TK-10 = test: cells; details: Homo sapiens, TK-10, 72 h
Description: Antiproliferative activity against human TK10 cells after 72 hrs by ViaLight assay

DU-145 = test: cells; details: Homo sapiens, DU-145, 72 h
Description: Antiproliferative activity against human DU145 cells after 72 hrs by ViaLight assay

MDA-MB-231 = test: cells; details: Homo sapiens, MDA-MB-231, 72 h
Description: Antiproliferative activity against human MDA-MB-231 cells after 72 hrs by ViaLight assay

cells [2] = details: Homo sapiens, Hs-578T, 72 h
Description: Antiproliferative activity against human Hs 578T cells after 72 hrs by ViaLight assay

T47D = test: cells; details: Homo sapiens, 72 h
Description: Antiproliferative activity against human T47D cells after 72 hrs by ViaLight assay

CC[C@H](CO)Nc1nc(NCc2ccccc2)c2ncn(C(C)C)c2n1 [SELICICLIB]
IC50 (SH-SY5Y): 16.1 µM | IC50 (HEK293): 48.9 µM | GI50 (cells [1]): 25.1 µM | GI50 (cells [1]; read-out: pGI50 (converted)): 25.1 µM | GI50 (EKVX): 19.9 µM | TGI (EKVX): 50.1 µM | GI50 (EKVX; read-out: pGI50 (converted)): 20 µM | TGI (EKVX; read-out: pTGI): 50.1 µM | GI50 (HOP-62): 25.1 µM | GI50 (HOP-62; read-out: pGI50 (converted)): 25.1 µM | GI50 (NCI-H23): 12.6 µM | TGI (NCI-H23): 50.1 µM | GI50 (NCI-H23; read-out: pGI50 (converted)): 12.6 µM | TGI (NCI-H23; read-out: pTGI): 50.1 µM | GI50 (NCI-H460): 25.1 µM | GI50 (NCI-H460; read-out: pGI50 (converted)): 25.1 µM | GI50 (NCI-H522): 15.8 µM | TGI (NCI-H522): 63.1 µM | GI50 (NCI-H522; read-out: pGI50 (converted)): 15.8 µM | TGI (NCI-H522; read-out: pTGI): 63.1 µM | GI50 (HCC 2998): 31.6 µM | GI50 (HCC 2998; read-out: pGI50 (converted)): 31.6 µM | GI50 (HCT-116): 5.01 µM | GI50 (HCT-116; read-out: pGI50 (converted)): 5.01 µM | GI50 (HCT-15): 19.9 µM | GI50 (HCT-15; read-out: pGI50 (converted)): 20 µM | GI50 (SF-268): 19.9 µM | GI50 (SF-268; read-out: pGI50 (converted)): 20 µM | GI50 (SF-295): 25.1 µM | GI50 (SF-295; read-out: pGI50 (converted)): 25.1 µM | GI50 (SF-539): 15.8 µM | GI50 (SF-539; read-out: pGI50 (converted)): 15.8 µM | GI50 (SNB-19; read-out: pGI50 (converted)): 12.6 µM | TGI (SNB-19; read-out: pTGI): 31.6 µM | GI50 (SNB-75): 12.6 µM | TGI (SNB-75): 31.6 µM | GI50 (SNB-75; read-out: pGI50 (converted)): 50.1 µM | GI50 (U-251): 50.1 µM | GI50 (U-251; read-out: pGI50 (converted)): 12.6 µM | GI50 (LOX IMVI): 12.6 µM | GI50 (LOX IMVI; read-out: pGI50 (converted)): 20 µM | TGI (LOX IMVI; read-out: pTGI): 50.1 µM | GI50 (M14): 25.1 µM | GI50 (M14; read-out: pGI50 (converted)): 12.6 µM | TGI (M14; read-out: pTGI): 50.1 µM | GI50 (SK-MEL-5): 10 µM | TGI (SK-MEL-5): 31.6 µM | GI50 (SK-MEL-5; read-out: pGI50 (converted)): 10 µM | TGI (SK-MEL-5; read-out: pTGI): 31.6 µM | GI50 (IGROV-1): 6.3 µM | GI50 (IGROV-1; read-out: pGI50 (converted)): 6.31 µM | GI50 (OVCAR-3): 12.6 µM | GI50 (OVCAR-3; read-out: pGI50 (converted)): 12.6 µM | GI50 (SK-OV-3): 6.31 µM | GI50 (786-0): 25.1 µM | GI50 (ACHN): 12.6 µM | GI50 (ACHN; read-out: pGI50 (converted)): 50.1 µM | GI50 (TK-10): 63.1 µM | GI50 (TK-10; read-out: pGI50 (converted)): 5.01 µM | GI50 (DU-145): 15.8 µM | GI50 (DU-145; read-out: pGI50 (converted)): 20 µM | GI50 (MDA-MB-231): 39.8 µM | GI50 (MDA-MB-231; read-out: pGI50 (converted)): 12.6 µM | TGI (MDA-MB-231; read-out: pTGI): 12.6 µM | GI50 (cells [2]): 12.8 µM | TGI (cells [2]): 12.6 µM | GI50 (T47D): 16.8 µM | GI50 (T47D; read-out: pGI50 (converted)): 39.8 µM
